The values below are quoted from earlier work in patent publication US6689588B1, “Garlic alliinase covalently bound to carrier for continuous production of allician” (Yeda Research and Development Co. Ltd., priority 1996, dated 2004).

The subject of series [1] is bacteria, fungi, amebae. To be noted: Cavallito et al., 1944; Barone and Tansey, 1977; Mirelman et al., 1987.
For series [2] the following is noted: Cavallito et al., 1944.

For the molecule `C=CCS[S+]([O-])CC=C` (centres unmarked) [allicin, thio-2-propene-1-sulfinic acid S-allyl ester], the antimicrobial activity result in series [1] was “antibacterial, antifungal and antiamebic activity”. Also, the chemical stability result in series [2] is “chemically unstable”.
